In US20250382332A1, “NOVEL ALPHA-FACTOR BASED PEPTIDES WITH ANTIFUNGAL ACTIVITY” (INVAIO SCIENCES, INC., priority 2024, published 2025):
Peptide text beside a SMILES is read from it.

Test system: Botrytis cinerea (B05.10)
Assay: Resazurin antifungal assay of 180 alpha-factor peptide variants towards Botrytis (Example 2)
Type: cell-based
Parameters: key to active against Botrytis at 15 μM / active against Botrytis at 10 μM: Peptides that showed greater than 90% inhibition were considered active against Botrytis
Conditions: for Inhibition at 10 μM / Inhibition at 20 μM / Inhibition at 50 μM / Inhibition at 100 μM / Inhibition at 15 μM: % inhibition of fungal growth, Botrytis conidia, resazurin; for Inhibition at 20 μM: peptide 20 μM; for Inhibition at 50 μM: peptide 50 μM; for Inhibition at 100 μM: peptide 100 μM; for Inhibition at 15 μM / active against Botrytis at 15 μM: peptide 15 μM
Procedure, shortened: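 B. cinerea B05.10 conidia (5000/well) were exposed to peptides at 100, 50, 20, 15 and 10 μM final for 24 h at 20° C. Resazurin was then added and fluorescence read at 570/620 nm. Percent growth inhibition was calculated against conidia-only wells, with four technical replicates.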

CC[C@H](C)[C@H](NC(=O)[C@H](CCC(N)=O)NC(=O)[C@H](CC(C)C)NC(=O)[C@H](Cc1c[nH]c2ccccc12)NC(=O)[C@H](CCCNC(=N)N)NC(=O)[C@@H]1CCCN1)C(=O)N[C@@H](CCCCN)C(=O)N[C@@H](CCCCN)C(=O)NCC(=O)N[C@@H](CCC(N)=O)C(=O)N[C@@H](CO)C(=O)N[C@@H](CCSC)C(=O)N[C@@H](Cc1ccc(O)cc1)C(=O)O [compound 63] (H-PRWLQIKKGQSMY-OH; N-terminus and C-terminus assumed)
Inhibition at 10 μM (peptide 10 μM): <90% | Inhibition at 20 μM: <90% | Inhibition at 50 μM: 100% | Inhibition at 100 μM: 100%

CSCC[C@H](NC(=O)CNC(=O)[C@H](CO)NC(=O)CNC(=O)[C@@H]1CCCN1C(=O)[C@H](CCCCN)NC(=O)[C@H](Cc1ccccc1)NC(=O)[C@H](CCC(N)=O)NC(=O)[C@H](CC(C)C)NC(=O)[C@H](Cc1c[nH]c2ccccc12)NC(=O)[C@H](Cc1c[nH]cn1)NC(=O)[C@@H](N)CCCCN)C(=O)N[C@@H](Cc1ccc(O)cc1)C(=O)O [compound 64] (H-KHWLQFKPGSGMY-OH; N-terminus and C-terminus assumed)
Inhibition at 10 μM (peptide 10 μM): <90% | Inhibition at 15 μM: <90% | Inhibition at 20 μM: 98.09% | Inhibition at 50 μM: 100% | Inhibition at 100 μM: 100%

CSCC[C@H](NC(=O)[C@@H]1CCCN1C(=O)[C@H](CCC(N)=O)NC(=O)CNC(=O)[C@@H](NC(=O)[C@H](CCCNC(=N)N)NC(=O)[C@H](CC(C)C)NC(=O)[C@H](CC(N)=O)NC(=O)[C@@H](NC(=O)[C@H](Cc1c[nH]c2ccccc12)NC(=O)[C@H](CCCCN)NC(=O)[C@@H](N)Cc1c[nH]c2ccccc12)C(C)C)[C@@H](C)O)C(=O)N[C@@H](Cc1ccc(O)cc1)C(=O)O [compound 65] (H-WKWVNLRTGQPMY-OH; N-terminus and C-terminus assumed)
Inhibition at 10 μM (peptide 10 μM): <90% | Inhibition at 20 μM: <90% | Inhibition at 50 μM: 100% | Inhibition at 100 μM: 100%

CC[C@H](C)[C@H](NC(=O)[C@H](Cc1c[nH]c2ccccc12)NC(=O)[C@H](Cc1c[nH]cn1)NC(=O)[C@@H]1CCCN1)C(=O)N[C@@H](CO)C(=O)N[C@@H](CC(C)C)C(=O)N[C@@H](CCCCN)C(=O)N[C@@H](CCCCN)C(=O)NCC(=O)N[C@@H](CCC(N)=O)C(=O)N1CCC[C@H]1C(=O)N[C@@H](CCSC)C(=O)N[C@@H](Cc1ccc(O)cc1)C(=O)O [compound 66] (H-PHWISLKKGQPMY-OH; N-terminus and C-terminus assumed)
Inhibition at 10 μM (peptide 10 μM): <90% | Inhibition at 15 μM: <90% | Inhibition at 20 μM: 96.17% | Inhibition at 50 μM: 100% | Inhibition at 100 μM: 100%

CC[C@H](C)[C@H](NC(=O)[C@H](CCCNC(=N)N)NC(=O)[C@H](CC(C)C)NC(=O)[C@H](CCSC)NC(=O)[C@H](Cc1c[nH]cn1)NC(=O)[C@@H](N)CCCCN)C(=O)N[C@@H](CCCCN)C(=O)N1CCC[C@H]1C(=O)NCC(=O)N[C@@H](CCC(N)=O)C(=O)N1CCC[C@H]1C(=O)N[C@@H](CCSC)C(=O)N[C@@H](Cc1ccc(O)cc1)C(=O)O [compound 67] (H-KHMLRIKPGQPMY-OH; N-terminus and C-terminus assumed)
Inhibition at 10 μM (peptide 10 μM): <90% | Inhibition at 15 μM: <90% | Inhibition at 20 μM: 97.68% | Inhibition at 50 μM: 100% | Inhibition at 100 μM: 100%

CSCC[C@H](NC(=O)[C@@H]1CCCN1C(=O)[C@H](CCC(N)=O)NC(=O)CNC(=O)[C@H](C)NC(=O)[C@H](CCCNC(=N)N)NC(=O)[C@H](CC(C)C)NC(=O)[C@H](CCCNC(=N)N)NC(=O)CNC(=O)[C@H](Cc1c[nH]c2ccccc12)NC(=O)[C@H](Cc1c[nH]cn1)NC(=O)[C@@H](N)CCCCN)C(=O)N[C@@H](Cc1ccc(O)cc1)C(=O)O [compound 68] (H-KHWGRLRAGQPMY-OH; N-terminus and C-terminus assumed)
Inhibition at 10 μM (peptide 10 μM): 97.09% | Inhibition at 15 μM: 99.23% | Inhibition at 20 μM: 100% | Inhibition at 50 μM: 100% | Inhibition at 100 μM: 100% | active against Botrytis at 10 μM (peptide 10 μM): active | active against Botrytis at 15 μM: active

CSCC[C@H](NC(=O)[C@@H]1CCCN1C(=O)[C@H](CCC(N)=O)NC(=O)CNC(=O)[C@@H]1CCCN1C(=O)[C@H](CC(N)=O)NC(=O)[C@H](CC(C)C)NC(=O)[C@H](CCCNC(=N)N)NC(=O)[C@H](CC(C)C)NC(=O)[C@H](Cc1c[nH]c2ccccc12)NC(=O)[C@H](Cc1c[nH]cn1)NC(=O)[C@@H](N)CCCCN)C(=O)N[C@@H](Cc1ccc(O)cc1)C(=O)O [compound 69] (H-KHWLRLNPGQPMY-OH; N-terminus and C-terminus assumed)
Inhibition at 10 μM (peptide 10 μM): <90% | Inhibition at 15 μM: <90% | Inhibition at 20 μM: 95.74% | Inhibition at 50 μM: 100% | Inhibition at 100 μM: 100%

CSCC[C@H](NC(=O)[C@H](CO)NC(=O)[C@H](CCC(N)=O)NC(=O)CNC(=O)[C@@H]1CCCN1C(=O)[C@H](CCCCN)NC(=O)[C@H](CC(C)C)NC(=O)[C@H](CCCNC(=N)N)NC(=O)[C@H](CC(C)C)NC(=O)[C@H](Cc1ccc(O)cc1)NC(=O)[C@H](Cc1c[nH]cn1)NC(=O)[C@@H](N)Cc1c[nH]c2ccccc12)C(=O)N[C@@H](Cc1ccc(O)cc1)C(=O)O [compound 70] (H-WHYLRLKPGQSMY-OH; N-terminus and C-terminus assumed)
Inhibition at 10 μM (peptide 10 μM): <90% | Inhibition at 20 μM: <90% | Inhibition at 50 μM: 100% | Inhibition at 100 μM: 100%

CC[C@H](C)[C@H](NC(=O)[C@H](Cc1c[nH]c2ccccc12)NC(=O)[C@H](Cc1c[nH]cn1)NC(=O)[C@@H](N)Cc1c[nH]c2ccccc12)C(=O)N[C@@H](CCC(N)=O)C(=O)N[C@@H](CC(C)C)C(=O)N[C@@H](CCCCN)C(=O)N[C@@H](CCCCN)C(=O)NCC(=O)N[C@@H](CCC(=O)O)C(=O)N1CCC[C@H]1C(=O)N[C@@H](CCSC)C(=O)N[C@@H](Cc1ccc(O)cc1)C(=O)O [compound 71] (H-WHWIQLKKGEPMY-OH; N-terminus and C-terminus assumed)
Inhibition at 10 μM (peptide 10 μM): <90% | Inhibition at 20 μM: <90% | Inhibition at 50 μM: 100% | Inhibition at 100 μM: 100%

CSCC[C@H](NC(=O)[C@@H]1CCCN1C(=O)[C@H](CCC(N)=O)NC(=O)CNC(=O)[C@@H]1CCCN1C(=O)[C@H](CCCCN)NC(=O)[C@H](Cc1ccccc1)NC(=O)[C@H](CCCCN)NC(=O)[C@H](CC(C)C)NC(=O)[C@H](Cc1ccc(O)cc1)NC(=O)[C@H](Cc1c[nH]cn1)NC(=O)[C@@H](N)CCCCN)C(=O)N[C@@H](Cc1ccc(O)cc1)C(=O)O [compound 72] (H-KHYLKFKPGQPMY-OH; N-terminus and C-terminus assumed)
Inhibition at 10 μM (peptide 10 μM): <90% | Inhibition at 15 μM: 98.60% | Inhibition at 20 μM: 100% | Inhibition at 50 μM: 100% | Inhibition at 100 μM: 100% | active against Botrytis at 15 μM: active
